Source: patent US20220056484A1, “SELECTION BY MEANS OF ARTIFICIAL TRANSACTIVATORS” (Ospedale San Raffaele S.R.L., priority 2018, published 2022)

System: CXCR4 selector in IL2RG locus, CD34+ cells
Test: SMArT-D in CD34+ cells, IL2RG locus, CXCR4 selector
Format: cell-based, human
Conditions: lower dose (80 nM), after washout
Experimental: CD34+ cells were edited according to a previously optimized protocol (Schiroli et al., 2017). Briefly, 5×10^5 CD34+ cells/ml were stimulated in serum-free StemSpan medium (StemCell Technologies) supplemented with penicillin, streptomycin, glutamine, 1 μM SR-1 (Biovision), 50 μM UM171 (STEMCell Technologies), 10 μM PGE2 added only at the beginning of the culture (Cayman), and human early-acting cytokines (SCF 100 ng/ml, Flt3-L 100 ng/ml, TPO 20 ng/ml, and IL-6 20 ng/ml; all purchased from Peprotech). After 3 days of pre-stimulation, cells were washed with PBS and electroporated using P3 Primary Cell 4D-Nucleofector X Kit and program EO-100 (Lonza). Cells were electroporated with 2.5-1.25 μM of RNPs. Transduction with AAV6 was performed at a dose of 1×10^4 vg/cell 15′ after electroporation. […] Gene editing efficiency was measured from cultured cells in vitro 3 days after electroporation by flow cytometry measuring the percentage of cells expressing the GFP/truncated NGFR/CXCR4 marker or by digital droplet PCR analysis designing primers and probe on the junction between the vector sequence and the targeted locus and on control sequences utilized as normalizer.

Q: Which “CXCR4-overexpressing cells in the most primitive compartment” value does the source give for `C[C@H]1c2cccc(O)c2C(=O)C2=C(O)[C@]3(O)C(=O)C(C(N)=O)=C(O)[C@@H](N(C)C)[C@@H]3[C@@H](O)[C@@H]21` [doxycycline] here?
A: up to 13%
